Where two headings read alike, the source gives them in different places.
Assays:
E. coli GC 2271 = experiment: MIC, broth microdilution; conditions: Escherichia coli
S. aureus GC 6469 = experiment: MIC, broth microdilution; conditions: Staphylococcus aureus
S. agalactiae GC 4564 = experiment: MIC, broth microdilution; conditions: Streptococcus agalactiae
E. coli GC 1073 = experiment: MIC, broth microdilution; conditions: Escherichia coli
E. coli = experiment: Range of MIC for E. coli strains; conditions: Escherichia coli
S. pneumoniae+ GC 4465 = experiment: MIC, broth microdilution; conditions: Streptococcus pneumoniae
E. coli GC 2232 = experiment: MIC, broth microdilution; conditions: Escherichia coli
S. aureus GC 6335 = experiment: MIC, broth microdilution; conditions: Staphylococcus aureus
P. aeruginosa GC 2214 = experiment: MIC, broth microdilution; conditions: Pseudomonas aeruginosa
c. albicans GC 3066 = experiment: MIC, broth microdilution
E. faecalis GC 2265 = experiment: MIC, broth microdilution; conditions: Enterococcus faecalis
S. pyogenes GC 4563 = experiment: MIC, broth microdilution; conditions: Streptococcus pyogenes
S. aureus GC 2216 = experiment: MIC, broth microdilution; conditions: Staphylococcus aureus
E. coli GC 4559 = experiment: MIC, broth microdilution; conditions: Escherichia coli
Description: Antimicrobial susceptibility testing. The in vitro activities of the antibiotics are determined by the broth microdilution method as recommended by the National Committee for Clinical Laboratory Standards (NCCLS) (1). Mueller-Hinton II broth (MHBII)(BBL Cockeysville, Md.) is the medium employed in the testing procedures. Microtiter plates containing serial dilutions of each antimicrobial agent are inoculated with each organism to yield the appropriate density (10^5 CFU/ml) in a 100 μl final volume. The plates are incubated for 18-22 hours at 35° C. in ambient air.
Representative compounds were first incubated in mouse serum for an hour prior to the in vitro testing against a panel of selected gram-positive and gram-negative bacteria strains. All compounds were also pre-incubated in water for an hour prior to testing as control. Representative compounds of Formula I were incubated in human serum prior to MIC determination.

E. coli GC 3226 = experiment: MIC, broth microdilution; conditions: Escherichia coli
E. faecalis GC 2242 = experiment: MIC, broth microdilution; conditions: Enterococcus faecalis
E. coli GC 2270 = experiment: MIC, broth microdilution; conditions: Escherichia coli
S. aureus GC 4536 = experiment: MIC, broth microdilution; conditions: Staphylococcus aureus
E. faecium GC 2243 = experiment: MIC, broth microdilution; conditions: Enterococcus faecium

Cc1cc(C)cc(C(=O)OCOC(=O)N(CC(=O)Nc2cc(N(C)C)c3c(c2O)C(=O)C2=C(O)[C@]4(O)C(=O)C(C(N)=O)=C(O)[C@@H](N(C)C)[C@@H]4C[C@@H]2C3)C(C)(C)C)c1 [Example 51]
0.5 mg/L: MIC (S. aureus GC 6335; GC6335, read-out: MINIMAL INHIBITORY CONCENTRATION MIC, Human Serum) | MIC (S. aureus GC 6335; GC6335, read-out: MINIMAL INHIBITORY CONCENTRATION MIC, Mouse Serum) | MIC (S. pyogenes GC 4563; GC4563, read-out: MINIMAL INHIBITORY CONCENTRATION MIC, Mouse Serum) | MIC (S. aureus GC 2216; GC2216, read-out: MINIMAL INHIBITORY CONCENTRATION MIC, Human Serum) | MIC (S. aureus GC 2216; GC2216, read-out: MINIMAL INHIBITORY CONCENTRATION MIC, Mouse Serum) | MIC (S. aureus GC 4536; GC4536, read-out: MINIMAL INHIBITORY CONCENTRATION MIC, Human Serum) | MIC (S. aureus GC 4536; GC4536, read-out: MINIMAL INHIBITORY CONCENTRATION MIC, Mouse Serum)
64 mg/L: MIC (E. coli GC 1073; GC1073, read-out: MINIMAL INHIBITORY CONCENTRATION MIC, Human Serum) | MIC (P. aeruginosa GC 2214; GC2214, read-out: MINIMAL INHIBITORY CONCENTRATION MIC, Mouse Serum) | MIC (E. coli GC 3226; GC3226, read-out: MINIMAL INHIBITORY CONCENTRATION MIC, Human Serum)
32 mg/L: MIC (E. coli GC 2271; GC2271, read-out: MINIMAL INHIBITORY CONCENTRATION MIC, Human Serum) | MIC (E. coli GC 2232; GC2232, read-out: MINIMAL INHIBITORY CONCENTRATION MIC, Human Serum) | MIC (E. coli GC 4559; GC4559, read-out: MINIMAL INHIBITORY CONCENTRATION MIC, Human Serum) | MIC (E. coli GC 2270; GC2270, read-out: MINIMAL INHIBITORY CONCENTRATION MIC, Human Serum)
1 mg/L: MIC (E. coli GC 2271; GC2271, read-out: MINIMAL INHIBITORY CONCENTRATION MIC, Mouse Serum) | MIC (S. aureus GC 6469; GC6469, read-out: MINIMAL INHIBITORY CONCENTRATION MIC, Human Serum) | MIC (S. aureus GC 6469; GC6469, read-out: MINIMAL INHIBITORY CONCENTRATION MIC, Mouse Serum) | MIC (S. agalactiae GC 4564; GC4564, read-out: MINIMAL INHIBITORY CONCENTRATION MIC, Mouse Serum) | MIC (S. pneumoniae+ GC 4465; read-out: MINIMAL INHIBITORY CONCENTRATION MIC, Mouse Serum) | MIC (S. pneumoniae+ GC 4465; read-out: MINIMAL INHIBITORY CONCENTRATION MIC, Water) | MIC (S. aureus GC 6335; GC6335, read-out: MINIMAL INHIBITORY CONCENTRATION MIC, Water) | MIC (E. faecalis GC 2265; GC2265, read-out: MINIMAL INHIBITORY CONCENTRATION MIC, Mouse Serum) | MIC (S. aureus GC 2216; GC2216, read-out: MINIMAL INHIBITORY CONCENTRATION MIC, Water) | MIC (E. coli GC 2270; GC2270, read-out: MINIMAL INHIBITORY CONCENTRATION MIC, Mouse Serum) | MIC (S. aureus GC 4536; GC4536, read-out: MINIMAL INHIBITORY CONCENTRATION MIC, Water) | MIC (E. faecium GC 2243; GC2243, read-out: MINIMAL INHIBITORY CONCENTRATION MIC, Mouse Serum)
4 mg/L: MIC (S. agalactiae GC 4564; GC4564, read-out: MINIMAL INHIBITORY CONCENTRATION MIC, Human Serum) | MIC (E. faecalis GC 2265; GC2265, read-out: MINIMAL INHIBITORY CONCENTRATION MIC, Human Serum) | MIC (E. faecalis GC 2242; GC2242, read-out: MINIMAL INHIBITORY CONCENTRATION MIC, Human Serum) | MIC (E. faecium GC 2243; GC2243, read-out: MINIMAL INHIBITORY CONCENTRATION MIC, Human Serum) | MIC (E. faecium GC 2243; GC2243, read-out: MINIMAL INHIBITORY CONCENTRATION MIC, Water)
> 64 mg/L: MIC (E. coli GC 2271; GC2271, read-out: MINIMAL INHIBITORY CONCENTRATION MIC, Water) | MIC (E. coli GC 1073; GC1073, read-out: MINIMAL INHIBITORY CONCENTRATION MIC, Water) | MIC (E. coli; read-out: Minimum inhibitory concentration (MIC), E. coli (water)) | MIC (E. coli; read-out: Range of MIC, E. coli (Water)) | MIC (E. coli GC 2232; GC2232, read-out: MINIMAL INHIBITORY CONCENTRATION MIC, Water) | MIC (P. aeruginosa GC 2214; GC2214, read-out: MINIMAL INHIBITORY CONCENTRATION MIC, Human Serum) | MIC (P. aeruginosa GC 2214; GC2214, read-out: MINIMAL INHIBITORY CONCENTRATION MIC, Water) | MIC (c. albicans GC 3066; Candida albicans, GC3066, read-out: MINIMAL INHIBITORY CONCENTRATION MIC) | MIC (E. coli GC 4559; GC4559, read-out: MINIMAL INHIBITORY CONCENTRATION MIC, Water) | MIC (E. coli GC 3226; GC3226, read-out: MINIMAL INHIBITORY CONCENTRATION MIC, Water) | MIC (E. coli GC 2270; GC2270, read-out: MINIMAL INHIBITORY CONCENTRATION MIC, Water)
1 to 2 mg/L: MIC (E. coli; 20 h, read-out: Range of MIC, E. coli (Mouse Serum))
8 mg/L: MIC (E. faecalis GC 2265; GC2265, read-out: MINIMAL INHIBITORY CONCENTRATION MIC, Water) | MIC (E. faecalis GC 2242; GC2242, read-out: MINIMAL INHIBITORY CONCENTRATION MIC, Water)
2 mg/L: MIC (S. aureus GC 6469; GC6469, read-out: MINIMAL INHIBITORY CONCENTRATION MIC, Water) | MIC (S. agalactiae GC 4564; GC4564, read-out: MINIMAL INHIBITORY CONCENTRATION MIC, Water) | MIC (E. coli GC 1073; GC1073, read-out: MINIMAL INHIBITORY CONCENTRATION MIC, Mouse Serum) | MIC (S. pneumoniae+ GC 4465; read-out: MINIMAL INHIBITORY CONCENTRATION MIC, Human Serum) | MIC (E. coli GC 2232; GC2232, read-out: MINIMAL INHIBITORY CONCENTRATION MIC, Mouse Serum) | MIC (S. pyogenes GC 4563; GC4563, read-out: MINIMAL INHIBITORY CONCENTRATION MIC, Human Serum) | MIC (S. pyogenes GC 4563; GC4563, read-out: MINIMAL INHIBITORY CONCENTRATION MIC, Water) | MIC (E. coli GC 4559; GC4559, read-out: MINIMAL INHIBITORY CONCENTRATION MIC, Mouse Serum) | MIC (E. coli GC 3226; GC3226, read-out: MINIMAL INHIBITORY CONCENTRATION MIC, Mouse Serum) | MIC (E. faecalis GC 2242; GC2242, read-out: MINIMAL INHIBITORY CONCENTRATION MIC, Mouse Serum)
>64 UG/ML: MINIMAL INHIBITORY CONCENTRATION MIC (c. albicans GC 3066; Human Serum) | MINIMAL INHIBITORY CONCENTRATION MIC (c. albicans GC 3066; Mouse Serum)
32 to 64 mg/L: MIC (E. coli; read-out: Minimum inhibitory concentration (MIC), E. coli (Human Serum))

Reference: patent US20070049564A1 (Wyeth, priority 2005, published 2007)
